Laboratory results as given in patent publication US11193941B2, “Method for evaluating condition of skin dryness” (KAO CORPORATION, priority 2014, dated 2021).

Test system: AGR2 mRNA
Test: Promoting action of humectant on AGR2 gene expression level in normal human epidermal cells (Real-Time PCR)
Format: cell-based
Details: NHEK, 72 hour culture; for AGR2 expression compared to that in the control: result in words; for AGR2 expression level (relative value): normalized with RPLP0, control (99.5% EtOH solvent) = 1, n=2
Procedure: The normal human epidermal cells (NHEK) were cultured under conditions of 37° C. and 5% CO2 using EpiLife (Registered Trademark) (purchased from Kurabo). The cells were seeded in a 12 well plate at 1×10^5 cells and cultured for 48 hours, and the medium was then exchanged with a serum-free medium. Further, vitamin D3, which is a known agent for ameliorating dry skin, (99.5% ethanol solution, final concentration 1 nM or 10 nM) (Nutrients, 4(9):1213-8, 2012), eucalyptus extract (50% ethanol solution, final concentration 0.001%) (J Cosmet Dermatol, 12(1):3-11, 2013), macrocarpal, which is a major physiologically active substance of eucalyptus extract (50% ethanol solution, final concentration 10 nM) (Int J Cosmet Sci, 34(1):17-22, 2012), or 99.5% ethanol or 50% ethanol as a control was added to the medium. After 72 hour culture, total RNA was extracted from cells using RNeasy (Registered Trademark) Mini Kit (QIAGEN). The concentration of total RNA was measured and a reverse transcription reaction was carried out using a constant amount of total RNA. High capacity RNA-to-cDNA kit (Applied Biosystems) was used for the reverse transcription reaction. The expression of AGR2 mRNA was quantitatively determined from the obtained cDNA by Real-Time PCR. Taqman (Registered Trademark) Probe (AGR2: Hs00180702_m1, Applied Biosystems) was used for quantitative determination, and PRISM 7500 (Applied Biosystems) was used for detection and quantitative determination. PCR was carried out in a 20 μL reaction system and the amplification conditions were a denaturation reaction at 95° C. for 15 seconds, annealing at 60° C. for a minute and an elongation reaction. The mRNA expression level was normalized with the expression level of RPLP0 (Hs99999902_m1, Applied Biosystems) and shown as a relative value in the case where the mean expression level of AGR2 in a control (only 99.5% EtOH solvent) was considered as 1.

Compound | AGR2 expression compared to that in the control | AGR2 expression level (relative value) (final concentration 1 nM) | AGR2 expression level (relative value) (final concentration 10 nM)
C=C1CC[C@H](O)C/C1=C/C=C1\CCC[C@]2(C)[C@@H]([C@H](C)CCCC(C)C)CC[C@@H]12 [Vitamin D3, vitamin D3] | increased | 1.05 | 1.17
macrocarpal | increased |  | 1.17
